The results in this text go back to ChEMBL document CHEMBL2434918, “QM-polarized ligand docking accurately predicts the trend in binding affinity of a series of arylmethylene quinuclidine-like derivatives at the α4β2 and α3β4 nicotinic acetylcholine receptors (nAChRs)” (Bioorg Med Chem Lett, 2013).

Assay [1] has as its target T1, Neuronal acetylcholine receptor; alpha4/beta2 (Homo sapiens, UniProt P17787+P43681). Put plainly: Displacement of [3H]nicotine from human alpha4beta2 nAChR expressed in human SH-EP1 cell membranes after 2 hrs by liquid scintillation counting analysis. (In a radioligand displacement assay an active substance lowers the binding of a labelled ligand.)
Assay [2] concerns the target T1, Neuronal acetylcholine receptor; alpha4/beta2. As to the kind of experiment: Agonist activity at human alpha4beta2 nAChR expressed in human SH-EP1 cells assessed as induction of intracellular Ca2+ influx by FLIPR assay relative to nicotine. The assay is classed as cell-based.
Assay [3] shares this target. Put plainly: Agonist activity at human alpha4beta2 nAChR expressed in human SH-EP1 cells assessed as induction of intracellular Ca2+ influx by FLIPR assay. In kind it is cell-based.
The target is the same in assay [4]. Put plainly: Agonist activity at human alpha4beta2 nAChR expressed in human SH-EP1 cells assessed as induction of electrophysiological response at 0.1 uM by patch clamp method relative to acetylcholine. The assay is classed as cell-based. For orientation: The patch-clamp technique gives a direct electrical read-out from membranes.
For assay [5] the target is unchanged. As to the kind of experiment: Agonist activity at human alpha4beta2 nAChR expressed in human SH-EP1 cells assessed as induction of electrophysiological response at 1 uM by patch clamp method relative to acetylcholine. The assay is classed as cell-based.
The target is the same in assay [6]. Put plainly: Agonist activity at human alpha4beta2 nAChR expressed in human SH-EP1 cells assessed as induction of electrophysiological response at 10 uM by patch clamp method relative to acetylcholine. The assay is classed as cell-based.

Structures are written as SMILES.

T1 sequence (P17787 whole entry): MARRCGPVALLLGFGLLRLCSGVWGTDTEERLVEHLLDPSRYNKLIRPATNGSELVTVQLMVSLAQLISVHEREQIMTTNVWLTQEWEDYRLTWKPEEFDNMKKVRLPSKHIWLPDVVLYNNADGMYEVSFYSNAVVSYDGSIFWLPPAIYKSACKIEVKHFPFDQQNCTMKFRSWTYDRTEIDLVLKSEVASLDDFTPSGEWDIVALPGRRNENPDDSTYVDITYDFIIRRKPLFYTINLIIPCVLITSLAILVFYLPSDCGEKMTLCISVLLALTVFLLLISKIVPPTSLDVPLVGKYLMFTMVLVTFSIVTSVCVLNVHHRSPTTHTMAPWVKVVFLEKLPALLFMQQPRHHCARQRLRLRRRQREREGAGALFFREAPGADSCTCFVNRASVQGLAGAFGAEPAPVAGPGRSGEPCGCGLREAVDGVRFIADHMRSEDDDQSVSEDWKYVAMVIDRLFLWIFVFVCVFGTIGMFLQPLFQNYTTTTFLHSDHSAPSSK
T1 sequence (P43681 whole entry): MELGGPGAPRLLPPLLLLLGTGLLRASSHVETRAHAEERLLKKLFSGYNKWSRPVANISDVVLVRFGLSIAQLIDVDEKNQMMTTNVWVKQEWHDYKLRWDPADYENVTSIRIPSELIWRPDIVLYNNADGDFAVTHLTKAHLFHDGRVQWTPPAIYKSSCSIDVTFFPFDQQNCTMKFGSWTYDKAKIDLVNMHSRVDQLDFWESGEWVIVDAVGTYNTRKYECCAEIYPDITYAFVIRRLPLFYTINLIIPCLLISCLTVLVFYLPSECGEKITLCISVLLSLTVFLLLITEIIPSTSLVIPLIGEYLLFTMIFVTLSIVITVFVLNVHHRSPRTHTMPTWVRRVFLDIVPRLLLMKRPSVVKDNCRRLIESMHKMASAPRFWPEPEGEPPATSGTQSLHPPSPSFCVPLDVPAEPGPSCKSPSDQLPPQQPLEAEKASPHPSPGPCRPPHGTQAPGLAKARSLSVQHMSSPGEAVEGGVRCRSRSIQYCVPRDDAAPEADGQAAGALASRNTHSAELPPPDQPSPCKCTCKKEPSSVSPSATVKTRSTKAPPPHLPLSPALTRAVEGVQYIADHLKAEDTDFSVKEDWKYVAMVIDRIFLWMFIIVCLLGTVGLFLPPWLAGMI

The Ki is the equilibrium dissociation constant of an inhibitor or competing ligand from its target. Read a low Ki as higher affinity. The term Emax denotes the greatest response seen or fitted, relative to the assay's reference. For orientation: EC50 means the concentration needed to bring the measured effect to its halfway point. Take `C(=C1/CN2CCC1CC2)/c1cccnc1`: the Ki in assay [1] was 0.006 µM. The Emax in assay [2] stood at 18%. In assay [3], the EC50 was more than 10 µM. Also, the Activity in assay [4] amounted to 4%; in assay [5], 11%; in assay [6], 24%.

As for `C(=C1/CN2CCC1CC2)/c1ccccc1`, the inhibition constant Ki in assay [1] is 1.6 µM. Further, the Emax in assay [2] came to 11%. In addition, the EC50 in assay [3] is more than 10 µM. Moreover, the figures for the Activity in assay [4], in assay [5] and in assay [6] were 2%, 3% and 2%, respectively.

`c1ccc(C(c2ccccc2)[N+]23CCN(CC2)CC3)cc1`: the Ki in assay [1] is more than 10 µM. Also, the Emax in assay [2] is less than 5%. The Activity in assay [4] turned out to be 1%; in assay [5], 3%; in assay [6] it was 1%.

For the molecule `c1ccc(C(=C2CN3CCC2CC3)c2ccccc2)cc1`, the Ki in assay [1] was determined as 0.09 µM. For the same molecule, the Emax in assay [2] is 6%. Besides, the values for the Activity in assay [4], in assay [5] and in assay [6] were 0.6%, 2% and 2%, respectively.

In the case of `c1ccc(C[N+]23CCC(CC2)C(=C(c2ccccc2)c2ccccc2)C3)cc1`, in assay [1], the Ki was 7 µM. The Emax in assay [2] is less than 5%. The values for the Activity in assay [4], in assay [5] and in assay [6] were 2%, 2% and 1%, respectively.

`N#C/C(=C1\CN2CCC1CC2)c1ccccc1` showed a Ki in assay [1] of 1.1 µM. The Emax in assay [2] was less than 5%. In addition, the Activity in assay [4] turned out to be 3%; in assay [5] it was 2%; in assay [6] it was 2%.

In turn, `C(CN1CCCCC1)=C(c1ccccc1)c1ccccc1` came in with a Ki in assay [1] of 0.16 µM. Further, the Emax in assay [2] was determined as 9%. Besides, the results for the Activity in assay [4], in assay [5] and in assay [6] were 0.8%, 2% and 1%, respectively.
